Experimental data: patent US11857560B2, “Pharmaceutical compositions comprising substituted nucleotides and nucleosides for treating viral infections” (priority 2013, dated 2024)

What was measured:
[1] = test system: HCMV; assay: HCMV replication assay; type: cell-based; settings: Human betaherpesvirus 5
[2] = test system: VZV; assay: VZV replication assay; type: cell-based; settings: Human alphaherpesvirus 3
[3] = Cytotoxicity in MRC-5 cells (HCMV assay); type: cell-based; settings: human, beside HCMV
[4] = Cytotoxicity in MRC-5 cells (VZV assay); type: cell-based; settings: human, beside VZV
[5] = Toxicity in Huh-7 cells (Dengue assay); settings: human, Huh-7 cells
[6] = test system: Adenovirus; assay: Adenovirus replication assay; type: cell-based; settings: unidentified adenovirus
[7] = Cytotoxicity in PBM cells (HIV assay); type: cell-based; settings: human, peripheral blood mononuclear cells (PBMCs), PHA-P stimulated; beside HIV
[8] = Cytotoxicity in HepG2 cells (HBV assay); type: cell-based; settings: human, HepG2.2.15 cells; beside HBV
Procedure: The 50% cytotoxic concentration for the test materials are derived by measuring the reduction of the tetrazolium dye XTT in the treated tissue culture plates. XTT is metabolized by the mitochondrial enzyme […] to a soluble formazan product in metabolically active cells. […] The 2-4 hour incubation has been empirically determined to be within linear response range for XTT dye reduction with the indicated numbers of cells for each assay. […] Data were collected by Softmax 4.6 software and imported into an Excel spreadsheet for analysis.

[9] = Cytotoxicity in Huh-7 cells (HSV-1 assay); type: cell-based; settings: human, beside HSV-1
[10] = test system: Huh-7; assay: Cytotoxicity panel, Huh-7; settings: read-out: Cytotoxicity (CC50 uM) Huh-7; Huh-7
[11] = test system: HSV-1; assay: HSV-1 replication assay; type: cell-based; settings: Human alphaherpesvirus 1
[12] = test system: HBV; assay: HBV replication assay; type: cell-based; settings: Hepatitis B virus
Procedure: Ten microliters of cell culture supernatant collected on the sixth day was diluted in qPCR dilution buffer (40 μg/mL sheared salmon sperm DNA) and boiled for 15 minutes. Quantitative real time PCR was performed in […] using an Applied Biosystems 7900HT Sequence Detection System and the supporting SDS 2.4 software. Five microliters (5 μL) of boiled DNA for each sample and serial 10-fold dilutions of a quantitative DNA standard were subjected to real time Q-PCR using Platinum Quantitative PCR SuperMix-UDG (Invitrogen) and specific DNA oligonucleotide primers (IDT, Coralville, […]) HBV-AD38-qFI (5′-[…] -3′) (SEQ ID NO: 1), HBV-AD38-qR1 (5′-AGT CCA AGA GTY CTC TTA TRY AAG ACC TT-3′) (SEQ ID NO: 2), and HBV-AD38-qPI (5′-FAM CCG TGT GCA/ZEN/[…] -3′BHQ1) (SEQ ID NO: 3) at a final concentration of 0.2 μM for each primer in a total reaction volume of 15 μL. The HBV DNA copy number in each sample was interpolated from the standard curve by the SDS.24 software and the data were imported into an Excel spreadsheet for analysis.

[13] = test system: HIV; assay: HIV infected PBMC assay; type: cell-based, HIV-1; settings: Human immunodeficiency virus 1, PBMC
Procedure: Fresh human peripheral blood mononuclear cells (PBMCs) were obtained from a commercial source (Biological Specialty) and were determined to be seronegative for HIV and HBV. Depending on the volume of donor blood received, the leukophoresed blood cells were washed several times with PBS. After washing, the leukophoresed blood was diluted 1:1 with Dulbecco's phosphate buffered saline (PBS) and layered over 15 mL of Ficoll-Hypaque density gradient in a 50 ml conical centrifuge tube. These tubes were centrifuged for 30 min at 600 g. Banded PBMCs were gently aspirated from the resulting interface and washed three times with PBS. […] After incubation, PBMCs were centrifuged and resuspended in tissue culture medium. The cultures were maintained until use by half-volume culture changes with fresh IL-2 containing tissue culture medium every 3 days. […]
Following addition of test compound to the wells, 50 uL of a predetermined dilution of HIV virus (prepared from 4× of final desired in-well concentration) was added, and mixed well. […] After 7 days in culture, HIV-1 replication was quantified in the tissue culture supernatant by measurement of reverse transcriptase (RT) activity. […]
Reverse Transcriptase Activity Assay—Reverse transcriptase activity was measured in cell-free supernatants using a standard radioactive incorporation polymerization assay. […]

[14] = test system: HCV replicon 3a (GT1b/3a NS5B chimera); assay: microbe, parasite or virus in culture; type: cell-based; settings: Hepatitis C virus, read-out: EC50 (μM) 3a (GT1b/3a NS5B chimera)
[15] = Cytotoxicity panel, CEM; settings: human, CEM cells, Cytotoxicity (CC50 uM) CEM
[16] = test system: HCV replicon 2b (GT1b/2b NS5B chimera); assay: microbe, parasite or virus in culture; type: cell-based; settings: Hepatitis C virus, read-out: EC50 (μM) 2b (GT1b/2b NS5B chimera)
[17] = Cytotoxicity panel, Huh-7; settings: human, Huh-7 cells, Cytotoxicity (CC50 uM) Huh-7, Huh-7
[18] = test system: HCV replicon 4a (GT1b/4a NS5B chimera); assay: microbe, parasite or virus in culture; type: cell-based; settings: Hepatitis C virus, read-out: EC50 (μM) 4a (GT1b/4a NS5B chimera)
[19] = Cytotoxicity panel, HepG2; settings: human, HepG2 cells
[20] = test system: Dengue Type 2; assay: Anti-Dengue virus cytoprotection assay, Vero cells; settings: read-out: Dengue Type 2 Vero Cells (EC50 uM)
[21] = test system: Huh-7 cells; assay: Toxicity in Huh-7 cells (Dengue assay); settings: read-out: CC50 uM; Cell Line Huh-7, pan-serotype Dengue table
[22] = test system: Dengue Type 2; assay: Anti-Dengue virus cytoprotection assay, Huh-7 cells; settings: Huh-7, read-out: Dengue Type 2 Huh-7 Cells (EC50 uM)
[23] = Toxicity in Vero cells (Dengue assay); settings: African green monkey
[24] = test system: HepG2; assay: Cytotoxicity panel, HepG2; settings: read-out: Cytotoxicity (CC50 uM) HepG2; HepG2
[25] = test system: CEM; assay: Cytotoxicity panel, CEM; settings: read-out: Cytotoxicity (CC50 uM) CEM
[26] = Cellular toxicity in parallel with HCV replicon assay (XTT); settings: human

Q: Which results are given for CC(C)OC(=O)[C@H](C)NP(=O)(OC[C@H]1O[C@@H](n2ccc(=O)[nH]c2=S)[C@](C)(O)C1O)Oc1ccccc1 (some centres unmarked) [ENUC-01911]?
A: EC50 [1]: > 100 µM; EC50 [2]: > 100 µM; CC50 [3]: > 100 µM; CC50 [4]: > 100 µM; CC50 [5]: > 100 µM; EC50 [6]: > 100 µM; CC50 at 7 days [7]: > 100 µM; CC50 at 6 days [8]: > 100 µM; CC50 [9]: > 100 µM; CC50 [10]: > 400 µM; EC50 [11]: > 100 µM; EC50 [12]: > 100 µM; EC50 [13]: > 100 µM

Q: Which EC50 [14] does the source give for CC(C)OC(=O)[C@H](C)N[P@](=O)(OC[C@H]1O[C@@H](n2ccc(=O)[nH]c2=S)[C@](C)(O)C1O)Oc1ccccc1 (some centres unmarked) [ENUC-02023-1] here?
A: 0.0367 µM

Q: And the CC50 [15]?
A: > 400 µM

Q: And the EC50 [16]?
A: 0.0445 µM

Q: What about the CC50 [17] of the same compound?
A: 252 µM

Q: And the EC50 [18]?
A: 0.0254 µM

Q: What about the CC50 [19] of the same compound?
A: > 400 µM

Q: For CC(C)OC(=O)[C@H](C)N[P@](=O)(OC[C@H]1O[C@@H](n2ccc(=O)[nH]c2=S)[C@](C)(O)C1O)Oc1ccccc1 (some centres unmarked) [ENUC-02023], which EC50 [20] is on record?
A: 2.35 µM

Q: And the CC50 [5]?
A: > 100 µM

Q: What about the CC50 [21] of the same compound?
A: > 100 µM

Q: And the EC50 [22]?
A: 5.62 µM

Q: And the CC50 [23]?
A: > 100 µM

Q: What about the CC50 [24] of the same compound?
A: > 400 µM

Q: With CC(C)OC(=O)[C@H](C)NP(=O)(OC[C@H]1O[C@@H](n2ccc(=S)[nH]c2=O)[C@@H](O)C1O)Oc1ccccc1 (some centres unmarked) [ENUC-02071-1] as the compound, how does the CC50 [15] read?
A: 241 µM

Q: And the CC50 [25]?
A: > 400 µM

Q: And the CC50 at 72 h [26]?
A: > 100 µM

Q: What about the CC50 [17] of the same compound?
A: 381 µM
